# Measured values published in article PMC12211128, “Safety, tolerability, pharmacokinetic and pharmacodynamic effects of the muscarinic M1 positive allosteric modulator VU0467319 for Alzheimer’s disease: a single ascending-dose study in healthy participants” (Alzheimer's Research & Therapy, 2025).
# Key:
# [1] = test system: healthy participants; assay: Conner's Continuous Performance Task (CPT); type: in vivo, human; settings: for CPT Perseverations / CPT Commission Errors / CPT Hit Response Time / CPT Omission Errors: mean (SD)
# Protocol: (§1) The Conner’s Continuous Performance Task (CPT; [32]) tested sustained attention to a target. Participants saw a string of letters appearing one at a time on a computer screen. Participants were asked to press the spacebar whenever the target stimulus (any letter except for the X) appeared. Participants were asked to withhold responding when a X was presented, which is the non-target stimulus. A set of 15 outcome measures derived from the task report were recorded as key variables. These measures include Hit RT, Hit Standard Error, Commission, Omission and Perseveration errors, Sensitivity, Response style, and the Hit standard error across different interstimulus intervals.
# Cognitive data: In this exploratory analysis, each outcome variable of the cognitive data was examined in a mixed model analysis of variance with one between-subjects factor of VU319 dose (0, 60, 120, 240, 400, 600 mg) and a within-subjects factor of testing session (pre-dose vs. post-dost administration). Post-hoc analysis compared each of the VU319 dose cohorts against the placebo group. Because the participants were healthy adults with normal cognitive function, we considered effects between no reductions in function to small improvement (d = 0.0–0.20) to be a positive result. For the food effect study, only the participants who received VU319 were examined due to the disproportionately small placebo group (n = 2). A within-subjects ANOVA including food condition (fasted/fed) and testing session (pre-dose vs. post-dose administration) was performed on each outcome variable.
# as §1, with “(Conners et al., 2000))” for “[32])”
# [2] = test system: animal models; parameters: method as in PMID 39660766; settings: preclinical and IND-enabling studies; cited from earlier work
# [3] = Food effect study 120 mg, Fed, Post-Drug, n = 9
# [4] = Food effect study 120 mg, Fed, Pre-Drug, n = 9
smiles,measurement,setting,value
Cn1cc2c(-c3cc(F)c(CN4Cc5ncccc5C4=O)c(F)c3)cccc2n1 [VU319],CPT Perseverations,"[1]; Food effect study 120 mg, Fasting, Pre-Drug, n = 9",3.89 (11.7)
same,CPT Commission Errors,[1]; [3],12.3 (6.2)
same,CPT Hit Response Time,[1]; [3],381.1 (71.8) ms
same,CPT Omission Errors,[1]; [3],2 (4.24)
same,CPT Perseverations,[1]; [3],1.78 (2.44)
same,CPT Commission Errors,[1]; [4],11.1 (5.58)
same,CPT Hit Response Time,[1]; [4],381.6 (59.56) ms
same,CPT Omission Errors,[1]; [4],1.22 (1.48)
same,CPT Perseverations,[1]; [4],0.44 (1.01)
same,CPT Commission Errors,"[1]; SAD study, 60 mg, Post-Drug",13.33 (4.37)
same,CPT Hit Response Time,"[1]; SAD study, 60 mg, Post-Drug",407.08 (66.44) ms
same,CPT Omission Errors,"[1]; SAD study, 60 mg, Post-Drug",3.33 (4.55)
same,CPT Perseverations,"[1]; SAD study, 60 mg, Post-Drug",0 (0)
same,CPT Commission Errors,"[1]; SAD study, 60 mg, Pre-Drug",12.83 (4.07)
same,CPT Hit Response Time,"[1]; SAD study, 60 mg, Pre-Drug",393.27 (46.65) ms
same,CPT Omission Errors,"[1]; SAD study, 60 mg, Pre-Drug",1 (1.27)
same,CPT Perseverations,"[1]; SAD study, 60 mg, Pre-Drug",0.33 (0.52)
same,CPT Commission Errors,"[1]; SAD study, 120 mg, Post-Drug",15.33 (5.92)
same,CPT Hit Response Time,"[1]; SAD study, 120 mg, Post-Drug",356.2 (29.58) ms
same,CPT Omission Errors,"[1]; SAD study, 120 mg, Post-Drug",4.67 (5.28)
same,CPT Perseverations,"[1]; SAD study, 120 mg, Post-Drug",1.5 (1.98)
same,CPT Commission Errors,"[1]; SAD study, 120 mg, Pre-Drug",15.5 (6.66)
same,CPT Hit Response Time,"[1]; SAD study, 120 mg, Pre-Drug",361.23 (27.25) ms
same,CPT Omission Errors,"[1]; SAD study, 120 mg, Pre-Drug",0.83 (0.75)
same,CPT Perseverations,"[1]; SAD study, 120 mg, Pre-Drug",0 (0)
same,CPT Commission Errors,"[1]; SAD study, 240 mg, Post-Drug",12 (1.55)
same,CPT Hit Response Time,"[1]; SAD study, 240 mg, Post-Drug",372.94 (64.52) ms
same,CPT Omission Errors,"[1]; SAD study, 240 mg, Post-Drug",2.33 (2.58)
same,CPT Perseverations,"[1]; SAD study, 240 mg, Post-Drug",0.83 (1.6)
same,CPT Commission Errors,"[1]; SAD study, 240 mg, Pre-Drug",11.33 (3.62)
same,CPT Hit Response Time,"[1]; SAD study, 240 mg, Pre-Drug",372.21 (43.06) ms
same,CPT Omission Errors,"[1]; SAD study, 240 mg, Pre-Drug",1 (1.27)
same,CPT Perseverations,"[1]; SAD study, 240 mg, Pre-Drug",0.5 (1.23)
same,CPT Commission Errors,"[1]; SAD study, 400 mg, Post-Drug",9.5 (3.08)
same,CPT Hit Response Time,"[1]; SAD study, 400 mg, Post-Drug",365.85 (33.44) ms
same,CPT Omission Errors,"[1]; SAD study, 400 mg, Post-Drug",1.67 (1.97)
same,CPT Perseverations,"[1]; SAD study, 400 mg, Post-Drug",0.33 (0.82)
same,CPT Commission Errors,"[1]; SAD study, 400 mg, Pre-Drug",10.33 (2.81)
same,CPT Hit Response Time,"[1]; SAD study, 400 mg, Pre-Drug",374.41 (25.8) ms
same,CPT Omission Errors,"[1]; SAD study, 400 mg, Pre-Drug",0.67 (1.2)
same,CPT Perseverations,"[1]; SAD study, 400 mg, Pre-Drug",0.17 (0.41)
same,CPT Commission Errors,"[1]; SAD study, 600 mg, Post-Drug",17 (8.49)
same,CPT Hit Response Time,"[1]; SAD study, 600 mg, Post-Drug",356.18 (45.08) ms
same,CPT Omission Errors,"[1]; SAD study, 600 mg, Post-Drug",1.5 (2.35)
same,CPT Perseverations,"[1]; SAD study, 600 mg, Post-Drug",1.5 (3.21)
same,CPT Commission Errors,"[1]; SAD study, 600 mg, Pre-Drug",13 (5.66)
same,CPT Hit Response Time,"[1]; SAD study, 600 mg, Pre-Drug",387.39 (51.74) ms
same,CPT Omission Errors,"[1]; SAD study, 600 mg, Pre-Drug",1.33 (3.27)
same,CPT Perseverations,"[1]; SAD study, 600 mg, Pre-Drug",0.33 (0.82)
same,"CPT hit response time, dose by time interaction, effect size d","[1]; SAD study, p = 0.063, faster following higher doses",1.19
same,"CPT, effects of food or time","[1]; food effect study, 120 mg",no significant effects of food or time
same,SLUDGE effects in animal models,[2],without producing SLUDGE effects
same,cognition in animal models,[2],effective at improving cognition
